In patent US9963480B2, “Nucleoside phosphoramidate compound and use thereof” (priority 2013, dated 2018):

What was measured:
Format in all cases: cell-based
Huh 7.5.1 cells = experiment: Cell viability detection (MTT) in the HCVcc system; conditions: in vitro HCVcc system
Procedure: (§1) Huh 7.5.1 cells, provided by Shanghai Institute of Materia Medica, Chinese Academy of Sciences.
(§2) • 1) Huh 7.5.1 cells preparation: collecting the Huh7.5.1 cells in logarithmic phase, resuspending in DMEM complete culture medium, seeding into 96-well plates (7×10^3 cells/well), and incubating in a 37° C., 5% CO2 incubator for 24 h; • 2) virus infection: resuspending J399EM viruses in DMEM complete culture medium, adding the virus supernatant (MOI≈0.1) to the above 96-well plates, and washing with PBS after 8 hours of infection; • 3) drug treatment: adding various concentrations of the compounds to the Huh7.5.1 cells infected by J399EM viruses, with each concentration in duplicate; setting the control group with zero percent effect (ZPE) and the control group with hundred percent effect (HPE); replacing the compound with the DMEM complete culture medium containing 0.5% DMSO in ZPE group, and using the cells not infected with viruses in HPE group. • 4) cells incubation: incubating the 96-well plates in a 37° C., 5% CO2 incubator for 72 hr; • 5) anti-HCV activity detection: reading the relative fluorescence units (RFU) of each well by EnVision® Multi label Plate readers after incubation, and calculating the anti-HCV activity of the compounds using the obtained data according to the following formula: Inhibition %=(RFUZPE−RFUCPD)/(RFUZPE−RFUHPE)×100 • wherein RFUZPE represents the relative fluorescence units of the control group with zero percent effect and RFUCPD represents the relative fluorescence units of the corresponding compound group, and RFUHPE represents the relative fluorescence units of the control group with hundred percent effect. • 6) Cell viability detection: adding MTT solution to each well, incubating in a 37° C., 5% CO2 incubator for 4 hr, followed by addition of MTT dissolving solution, reading optical density (OD) of each well at 570 nm by the Multi label Plate readers after 6 hr, calculating the cytotoxicity of the compounds using the obtained data according to the following formula: Viability %=ODCPD/ODZPE×100 • wherein ODZPE represents the optical density of the control group with zero percent effect, and ODCPD represents the optical density of the corresponding compound; • 7) Data processing: processing the Inhibition %, Viability % by GraphPad Prism Software respectively, and obtaining the half maximal effective concentration (EC50) values and half maximal cytotoxic concentration (CC50) values of the compounds against the HVCcc GT2a viruses.

[1] = tested on: J399EM (HCV genotype 2a) virus; experiment: Antiviral activity assay in the cell-culture-derived infectious HCV (HCVcc) system; conditions: for half maximal effective concentration (EC50) against the HCVcc GT2a viruses, in words: in vitro HCVcc system
Procedure: The compound according to the above example 1 was used in this experiment. The compound was formulated into a 10 mM mother liquid with DMSO, diluted to 500 nM by DMEM complete culture medium containing 0.5% of DMSO, followed by 4-fold dilution successively, and six concentrations were obtained. The positive control was diluted to 10 μM by DMEM complete culture medium containing 0.5% of DMSO, followed by 4-fold successively, and six concentrations were obtained.
as §1
J399EM (HCV genotype 2a) virus, i.e. a full length HCV mutant strain transfected with EGFP (enhanced green fluorescent protein) was used, which had the same infection capacity as the wild type JFH-1. The NS5A-EGFP fusion protein fluorescence was observed directly in infected cells by inserting EGFP coding sequence in the NS5A region. J399EM was provided by Shanghai Institute of Materia Medica, Chinese Academy of Sciences.
as §2

HCV 1b replicon = experiment: Antiviral activity assay in HCV replicon system (Huh7 1b cells, luciferase reporter); conditions: Hepatitis C virus, Huh-7; Huh7 1b cells with HCV 1b replicon, Bright-Glo luciferase, 72 h; read-out: EC50
Excerpt: The cell line Huh7 1b, which was provided by WuXi AppTec Co., Ltd. in Shanghai, contained an HCV 1b replicon with a stable Luciferase (Luc) reporter. It was constructed by cloning HCV nonstructural protein gene, neo (G418 resistance) and luciferase reporter gene into the pBR vector through gene recombination technology. Then the vector carrying the HCV replicon was transfected into Huh7 cells, and the transfected Huh7 cells were screened by G418 resistance. The HCV replicon was stably replicated, and the related protein and luciferase were stably expressed in Huh7 cells. The cells model was used for in-vitro screen of anti-HCV compounds. The anti-HCV activity of the compounds was measured by detecting the level of luciferase expression. See Lohmann V, et al. 1999. Replication of subgenomic hepatitis C virus RNAs in a hepatoma cell line. Science. 285(5424):110-113.
The control drug used in this experimental example was the compound of Example 25 in WO 2008/121634 (PCT/US2008/058183), i.e. (S)-2-{[(2R,3R,4R,5R)-5-(2,4-dioxo-3,4-dihydro-2H-pyrimidin-1-yl)-4-fluoro-3-hydr oxy-4-methyl-tetrahydro-furan-2-ylmethoxy]-phenoxy-phosphorylamino}-propanoic acid isopropyl ester. This compound was prepared according to the method described in J. Org. chem, 2011, 76, 8311-8319, and identified by H-NMR and mass spectrometry.
• 2.1 compound preparation: adding each of the compounds listed in Table 2 to 96-well plates using a POD™ 810 Automation Platform (LabCyte Corporation, USA), with 10 μM of each of the compounds as a starting concentration and in duplicate; serially diluting each of the compounds in 3-fold fashion and formulating 10 concentrations, with the final concentration of DMSO being 0.5%; • 2.2 cells preparation: seeding the Huh71b cells into 96-well plates respectively with a volume of 125 μl and 8×10^3 cells/well, and incubating in a 37° C., 5% CO2 incubator for 72 h; • 2.3 detection of cell activity: adding 30 μl per cell of the CellTiter-Fluor™ Reagent, incubating in a 37° C., 5% CO2 incubator for 1 h, measuring the fluorescence signal values with a fluorometer, and using the obtained data for calculation of cytotoxicities of the compounds; • 2.4 Bright-Glo detection: adding 100 μl per well of the Bright-Glo™ Luciferase Substrate, using a chemiluminescence detection system EnVision™ (PerkinElmer, USA) to detect the fluorescence signal values within 5 minutes, and using the obtained data for calculation of potencies of the compounds. • 2.5 data processing: converting the obtained data to a percentage of cell viability (Viability %) using the following formula:
[formula] • CPD: fluorescence signal value of the well added with the compound • ZPE (Zero percent effect): fluorescence signal value of the control well with zero percent effect. • Processing the raw data to calculate a percentage of inhibition (Inhibition %) using the following formula:
[formula] • CPD: fluorescence signal value of the well added with the compound; • HPE (Hundred percent effect): fluorescence signal value of the control well with hundred percent effect; • ZPE (Zero percent effect): fluorescence signal value of the control well with zero percent effect.
The inhibition percentage was processed by the GraphPad Prism software to obtain the corresponding curves and EC50 values.

[2] = Cell viability detection (MTT) in the HCVcc system; conditions: human, Huh 7.5.1 cells infected with J399EM virus (HCVcc); Huh 7.5.1 cells, MTT, 72 hr
Procedure: as §1, §2

Row | SMILES | half maximal cytotoxic concentration (CC50), in words (Huh 7.5.1 cells) | half maximal effective concentration (EC50) against the HCVcc GT2a viruses, in words [1] | EC50 (HCV 1b replicon) | CC50 at 72 h [2] | EC50 ([1]; Hepatitis C virus, Huh-7.5.1, 72 h)
1 | CC(C)OC(=O)[C@H](C)NP(=O)(OC[C@H]1O[C@@H](n2ccc(=O)[nH]c2=O)[C@](C)(F)[C@@H]1O)Oc1ccc(-c2ccc(F)cc2)cc1 (stereo partly drawn) [Example 5] | high | low | 61 nM | – | –
2 | CC(C)OC(=O)[C@H](C)NP(=O)(OC[C@H]1O[C@@H](n2ccc(=O)[nH]c2=O)[C@](C)(F)[C@@H]1O)Oc1ccc(-c2csnn2)cc1 (stereo partly drawn) [Example 12] | high | low | 637 nM | – | –
3 | CC(C)OC(=O)[C@H](C)NP(=O)(OC[C@H]1O[C@@H](n2ccc(=O)[nH]c2=O)[C@](C)(F)[C@@H]1O)Oc1ccc(-c2nccs2)cc1 (stereo partly drawn) [Example 16] | high | low | 3870 nM | – | –
4 | CC(C)OC(=O)[C@H](C)NP(=O)(OC[C@H]1O[C@@H](n2ccc(=O)[nH]c2=O)[C@](C)(F)[C@@H]1O)Oc1ccc(-c2ccc(C#N)cc2)cc1 (stereo partly drawn) [Example 18] | high | low | 314 nM | – | –
5 | CC(C)OC(=O)[C@H](C)NP(=O)(OC[C@H]1O[C@@H](n2ccc(=O)[nH]c2=O)[C@](C)(F)[C@@H]1O)Oc1ccc(-c2ccccc2)c(F)c1 (stereo partly drawn) [Example 28, (2S)-2-(((2-fluoro-[1,1′-biphenyl]-4-yloxy)(((2R,3R,4R,5R)-5-(2,4-dioxo-3,4-dihydropyrimidin-1(2H)-yl)-4-fluoro-3-hydroxy-4-methyltetrahydrofuran-2-yl)methoxy)phosphoryl)amino)propanoic Acid Isopropyl Ester] | high | low | 123 nM | – | –
6 | CC(C)OC(=O)[C@H](C)NP(=O)(OC[C@H]1O[C@@H](n2ccc(=O)[nH]c2=O)[C@](C)(F)[C@@H]1O)Oc1ccc(-c2cscn2)cc1 (stereo partly drawn) [Example 38, (2S)-2-(((4-(thiazol-4-yl)phenyloxy)(((2R,3R,4R,5R)-5-(2,4-dioxo-3,4-dihydropyrimidin-1(2H)-yl)-4-fluoro-3-hydroxy-4-methyltetrahydrofuran-2-yl)methoxy)phosphoryl)amino)propanoic Acid Isopropyl Ester] | high | low | 100 nM | – | –
7 | CC(C)OC(=O)[C@H](C)NP(=O)(OC[C@H]1O[C@@H](n2ccc(=O)[nH]c2=O)[C@](C)(F)[C@@H]1O)Oc1ccccc1 (stereo partly drawn) [Positive control, (S)-2-{[(2R,3R,4R,5R)-5-(2,4-dioxo-3,4-dihydro-2H-pyrimidin-1-yl)-4-fluoro-3-hydroxy-4-methyl-tetrahydro-furan-2-ylmethoxy]-phenoxy-phosphorylamino}-propanoic acid isopropyl ester, reference compound] | – | – | 117 nM | > 10000 nM | 173 nM
